# Assay results published in patent publication US20240391875A1, “ISOQUINOLINONES AND QUINOLINONES AS MODULATORS OF POLRMT” (Pretzel Therapeutics, Inc., priority 2021, published 2024).
# pIC50: −log10 of the molar value.
# Target: POLRMT (Homo sapiens, UniProt O00411)
# Assay: homogeneous TR-FRET assay of mitochondrial transcription (inhibition of POLRMT)
# Assay type: biochemical
# Details: isoquinolinone compounds (Table 1)
# Method in brief: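 Recombinant POLRMT (7.5 nM) with TFB2M, TFAM and linearized LSP plasmid template, 500 μM NTPs, pH 7.5 Mg buffer; 60 min at 37° C. Reaction stopped with EDTA/high-salt buffer, 407 bp RNA transcript detected by hybridized ATTO647/Europium-cryptate probe pair; TR-FRET 665/620 nm ratio taken as transcript yield.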
# Sequence of POLRMT (O00411 42-1230): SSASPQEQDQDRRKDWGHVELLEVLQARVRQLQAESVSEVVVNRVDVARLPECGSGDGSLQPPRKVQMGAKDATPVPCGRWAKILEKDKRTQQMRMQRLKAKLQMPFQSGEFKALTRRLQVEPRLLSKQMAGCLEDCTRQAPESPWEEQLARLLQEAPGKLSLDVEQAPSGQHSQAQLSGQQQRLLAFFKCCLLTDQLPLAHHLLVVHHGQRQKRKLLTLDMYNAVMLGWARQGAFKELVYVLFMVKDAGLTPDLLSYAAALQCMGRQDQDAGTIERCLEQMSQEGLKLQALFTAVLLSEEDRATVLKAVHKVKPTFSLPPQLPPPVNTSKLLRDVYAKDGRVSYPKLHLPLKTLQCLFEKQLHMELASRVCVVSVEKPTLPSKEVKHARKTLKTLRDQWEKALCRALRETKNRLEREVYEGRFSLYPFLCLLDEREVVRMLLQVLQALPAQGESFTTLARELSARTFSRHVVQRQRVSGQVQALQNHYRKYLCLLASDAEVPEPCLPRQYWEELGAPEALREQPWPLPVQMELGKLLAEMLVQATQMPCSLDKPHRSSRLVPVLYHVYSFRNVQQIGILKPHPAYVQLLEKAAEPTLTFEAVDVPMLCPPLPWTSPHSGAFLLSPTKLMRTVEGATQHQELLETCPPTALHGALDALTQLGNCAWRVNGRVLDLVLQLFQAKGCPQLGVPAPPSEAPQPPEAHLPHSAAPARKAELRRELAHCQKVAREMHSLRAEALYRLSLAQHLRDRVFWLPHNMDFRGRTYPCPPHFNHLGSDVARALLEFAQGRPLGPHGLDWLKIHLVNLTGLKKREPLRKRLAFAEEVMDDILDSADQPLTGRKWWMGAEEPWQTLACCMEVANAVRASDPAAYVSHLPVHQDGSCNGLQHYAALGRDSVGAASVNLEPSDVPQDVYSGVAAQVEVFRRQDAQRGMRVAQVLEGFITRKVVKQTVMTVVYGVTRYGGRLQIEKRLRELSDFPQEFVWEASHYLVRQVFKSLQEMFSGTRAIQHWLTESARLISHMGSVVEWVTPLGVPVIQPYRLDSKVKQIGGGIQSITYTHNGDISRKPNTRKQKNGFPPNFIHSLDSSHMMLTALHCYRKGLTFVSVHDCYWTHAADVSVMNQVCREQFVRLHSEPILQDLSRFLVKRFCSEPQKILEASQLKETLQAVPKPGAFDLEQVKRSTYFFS
row,Structure (SMILES),pIC50
1,"C[C@@H](Oc1ccc2c(-c3ccc(F)cc3Cl)c[nH]c(=O)c2c1)C(=O)N1CCS(=N)(=O)CC1 [Example 139, (R)-4-(2-chloro-4-fluorophenyl)-7-((1-(1-imino-1-oxido-1λ^6-thiomorpholino)-1-oxopropan-2-yl)oxy)isoquinolin-1(2H)-one]",5.70
2,"C[C@@H]1CN(C(=O)[C@@H](C)Oc2ccc3c(-c4ccc(F)cc4Cl)c[nH]c(=O)c3c2)C[C@H](C)O1 [Example 100, 4-(2-chloro-4-fluorophenyl)-7-(((R)-1-((2S,6R)-2,6-dimethylmorpholino)-1-oxopropan-2-yl)oxy)isoquinolin-1(2H)-one]",7.00
3,"COCC(C#N)Oc1ccc2c(-c3ccccc3C)c[nH]c(=O)c2c1 (single isomer, unassigned) [Example 75, 3-methoxy-2-((1-oxo-4-(o-tolyl)-1,2-dihydroisoquinolin-7-yl)oxy)propanenitrile]",5.40
4,"Cc1ccccc1-c1c[nH]c(=O)c2cc(O[C@H](C)C(=O)N3CCCC(F)(F)C3)ccc12 [Example 81, (R)-7-((1-(3,3-difluoropiperidin-1-yl)-1-oxopropan-2-yl)oxy)-4-(o-tolyl)isoquinolin-1(2H)-one]",7.52
5,"Cc1cccc(C)c1-c1c[nH]c(=O)c2cc(O[C@H](C)C(=O)O)ccc12 [Example 111, (R)-2-((4-(2,6-dimethylphenyl)-1-oxo-1,2-dihydroisoquinolin-7-yl)oxy)propanoic acid]",7.05
6,"COC[C@H]1COCCN1C(=O)[C@@H](C)Oc1ccc2c(-c3ccc(F)cc3Cl)c[nH]c(=O)c2c1 [Example 103, 4-(2-chloro-4-fluorophenyl)-7-(((R)-1-((S)-3-(methoxymethyl)morpholino)-1-oxopropan-2-yl)oxy)isoquinolin-1(2H)-one]",6.15
7,"C[C@@H](Oc1ccc2c(-c3ccc(F)cc3Cl)c[nH]c(=O)c2c1)C(=O)N1CCOC[C@@H]1C(N)=O [Example 122, (R)-4-((R)-2-((4-(2-chloro-4-fluorophenyl)-1-oxo-1,2-dihydroisoquinolin-7-yl)oxy)propanoyl)morpholine-3-carboxamide]",6.52
8,"C[C@@H](Oc1ccc2c(-c3ccc(F)cc3Cl)c[nH]c(=O)c2c1)C(=O)N1CCN(CC(F)(F)F)CC1 [Example 118, (R)-4-(2-chloro-4-fluorophenyl)-7-((1-oxo-1-(4-(2,2,2-trifluoroethyl)piperazin-1-yl)propan-2-yl)oxy)isoquinolin-1(2H)-one]",6.40
9,"Cc1ccccc1-c1c[nH]c(=O)c2cc(OC(C)C(N)=O)ccc12 (single isomer, unassigned) [Example 73]",6.40
10,"Cc1ccccc1-c1c[nH]c(=O)c2cc(O[C@H](C)C(=O)N3CCC[C@H](C(N)=O)C3)ccc12 [Example 94, (S)-1-((R)-2-((1-oxo-4-(o-tolyl)-1,2-dihydroisoquinolin-7-yl)oxy)propanoyl)piperidine-3-carboxamide]",7.15
11,"Cc1ccccc1-c1c[nH]c(=O)c2cc(NC(=O)C(C)C)ccc12 [Example 30, N-(1-oxo-4-(o-tolyl)-1,2-dihydroisoquinolin-7-yl)isobutyramide]",5.70
12,"Cc1ccccc1-c1c[nH]c(=O)c2cc(CN)ccc12 [Example 38, 7-(aminomethyl)-4-(o-tolyl)isoquinolin-1(2H)-one]",< 4.00
13,"C[C@@H](Oc1ccc2c(-c3ccc(F)cc3Cl)c[nH]c(=O)c2c1)C(=O)O [Example 90, (R)-2-((4-(2-chloro-4-fluorophenyl)-1-oxo-1,2-dihydroisoquinolin-7-yl)oxy)propanoic acid]",6.00
14,"C[C@@H](Oc1ccc2c(-c3ccc(F)cc3Cl)c[nH]c(=O)c2c1)C(=O)N1CCC[C@H](C#N)C1 [Example 87, (S)-1-((R)-2-((4-(2-chloro-4-fluorophenyl)-1-oxo-1,2-dihydroisoquinolin-7-yl)oxy)propanoyl)piperidine-3-carbonitrile]",6.70
15,"Cc1ccccc1-c1c[nH]c(=O)c2cc(CC(C)C(=O)N3CCCCC3)ccc12 (stereo not shown) [Example 41, 7-(2-methyl-3-oxo-3-(piperidin-1-yl)propyl)-4-(o-tolyl)isoquinolin-1(2H)-one]",6.00
16,"C[C@H](Oc1ccc2c(-c3ccc(F)cc3Cl)c[nH]c(=O)c2c1)C(=O)N1CCC[C@H](C(=O)O)C1 [Example 59, (S)-1-((S)-2-((4-(2-chloro-4-fluorophenyl)-1-oxo-1,2-dihydroisoquinolin-7-yl)oxy)propanoyl)piperidine-3-carboxylic acid]",4.60
17,"Cc1ccccc1-c1c[nH]c(=O)c2cc(NC(=O)C3CCN(C)CC3)ccc12 [Example 43, 1-methyl-N-(1-oxo-4-(o-tolyl)-1,2-dihydroisoquinolin-7-yl)piperidine-4-carboxamide]",< 4.00
18,"C[C@H]1CN(C(=O)[C@@H](C)Oc2ccc3c(-c4ccc(F)cc4Cl)c[nH]c(=O)c3c2)C[C@H](C)O1 (single isomer, unassigned) [Example 125]",6.70

row,Structure (SMILES),pIC50
1,"CCOC(=O)C(C)Cc1ccc2c(-c3ccccc3C)c[nH]c(=O)c2c1 (stereo not shown) [Example 40, ethyl 2-methyl-3-(1-oxo-4-(o-tolyl)-1,2-dihydroisoquinolin-7-yl)propanoate]",6.00
2,"Cc1ccccc1-c1c[nH]c(=O)c2cc(O[C@H](C)C(=O)N3CCC[C@H](C(=O)O)C3)ccc12 [Example 22, (S)-1-((R)-2-((1-oxo-4-(o-tolyl)-1,2-dihydroisoquinolin-7-yl)oxy)propanoyl)piperidine-3-carboxylic acid]",7.40
3,"C[C@@H](Oc1ccc2c(-c3ccc(F)cc3Cl)c[nH]c(=O)c2c1)C(=O)N1C2CCCC1CC2 [Example 93, 7-(((2R)-1-(8-azabicyclo[3.2.1]octan-8-yl)-1-oxopropan-2-yl)oxy)-4-(2-chloro-4-fluorophenyl)isoquinolin-1(2H)-one]",7.52
4,"CCc1ccccc1-c1c[nH]c(=O)c2cc(OCC#N)ccc12 [Example 137, 2-((4-(2-ethylphenyl)-1-oxo-1,2-dihydroisoquinolin-7-yl)oxy)acetonitrile]",6.52
5,"Cc1cc(F)cc(C)c1-c1c[nH]c(=O)c2cc(OCC(N)=O)ccc12 [Example 109, 2-((4-(4-fluoro-2,6-dimethylphenyl)-1-oxo-1,2-dihydroisoquinolin-7-yl)oxy)acetamide]",5.15
6,"C[C@@H](Oc1ccc2c(-c3ccc(F)cc3Cl)c[nH]c(=O)c2c1)C(=O)N1CCO[C@@H](CO)C1 [Example 104, 4-(2-chloro-4-fluorophenyl)-7-(((R)-1-((R)-2-(hydroxymethyl)morpholino)-1-oxopropan-2-yl)oxy)isoquinolin-1(2H)-one]",6.00
7,"Cc1ccccc1-c1c[nH]c(=O)c2cc(O[C@H](C)C(=O)N3C4CCCC3CC4)ccc12 [Example 86, 7-(((2R)-1-(8-azabicyclo[3.2.1]octan-8-yl)-1-oxopropan-2-yl)oxy)-4-(o-tolyl)isoquinolin-1(2H)-one]",7.70
8,"C[C@H]1CN(C(=O)[C@@H](C)Oc2ccc3c(-c4ccc(F)cc4Cl)c[nH]c(=O)c3c2)C[C@H](C)O1 (single isomer, unassigned) [Example 124]",6.30
9,"Cc1ccccc1-c1c[nH]c(=O)c2cc(C(=O)N3CCCC3)ccc12 [Example 19, 7-(pyrrolidine-1-carbonyl)-4-(o-tolyl)isoquinolin-1(2H)-one]",< 4.00
10,"C[C@@H](Oc1ccc2c(-c3ccc(F)cc3Cl)c[nH]c(=O)c2c1)C(=O)N1CCOC[C@H]1C(N)=O [Example 123, (S)-4-((R)-2-((4-(2-chloro-4-fluorophenyl)-1-oxo-1,2-dihydroisoquinolin-7-yl)oxy)propanoyl)morpholine-3-carboxamide]",6.52
11,"Cc1ccccc1-c1c[nH]c(=O)c2cc(O[C@H](C)C(=O)N3CC[C@H](C(=O)O)C3)ccc12 [Example 35, (S)-1-((R)-2-((1-oxo-4-(o-tolyl)-1,2-dihydroisoquinolin-7-yl)oxy)propanoyl)pyrrolidine-3-carboxylic acid]",6.40
12,"C[C@@H](Oc1ccc2c(-c3ccc(F)cc3Cl)c[nH]c(=O)c2c1)C(=O)N1C2CCC1COC2 [Example 92, 7-(((2R)-1-(3-oxa-8-azabicyclo[3.2.1]octan-8-yl)-1-oxopropan-2-yl)oxy)-4-(2-chloro-4-fluorophenyl)isoquinolin-1(2H)-one]",7.10
13,"C[C@@H](Oc1ccc2c(-c3ccc(F)cc3Cl)c[nH]c(=O)c2c1)C(=O)N1CCN(C)CC1 [Example 131, (R)-4-(2-chloro-4-fluorophenyl)-7-((1-(4-methylpiperazin-1-yl)-1-oxopropan-2-yl)oxy)isoquinolin-1(2H)-one]",6.00
14,"CC(C)Oc1ccc2c(-c3ccccc3C#N)c[nH]c(=O)c2c1 [Example 34, 2-(7-isopropoxy-1-oxo-1,2-dihydroisoquinolin-4-yl)benzonitrile]",4.85
15,"CCC(C)Oc1ccc2c(-c3ccccc3C)c[nH]c(=O)c2c1 (stereo not shown) [Example 5, 7-(sec-butoxy)-4-(o-tolyl)isoquinolin-1(2H)-one]",6.70
16,"C[C@@H](Oc1ccc2c(-c3ccc(F)cc3Cl)c[nH]c(=O)c2c1)C(=O)N1CCO[C@H](CO)C1 [Example 106, 4-(2-chloro-4-fluorophenyl)-7-(((R)-1-((S)-2-(hydroxymethyl)morpholino)-1-oxopropan-2-yl)oxy)isoquinolin-1(2H)-one]",6.22
17,"CC(C#N)Oc1ccc2c(-c3ccccc3Cl)c[nH]c(=O)c2c1 (single isomer, unassigned) [Example 57, 2-((4-(2-chlorophenyl)-1-oxo-1,2-dihydroisoquinolin-7-yl)oxy)propanenitrile]",6.52

# Same assay, conditions: quinolinone compounds (Table 2)
row,Structure (SMILES),pIC50
1,"CCC(C)Oc1ccc2c(-c3ccccc3C)cc(=O)[nH]c2c1 (stereo not shown) [Example Q11, 7-(sec-butoxy)-4-(o-tolyl)quinolin-2(1H)-one]",5.52
2,"COc1ccc2c(-c3ccc(F)cc3Cl)cc(=O)[nH]c2c1 [Example Q1, 4-(2-chloro-4-fluorophenyl)-7-methoxyquinolin-2(1H)-one]",< 4.00
